From article PMC5681660, “Reduced hepatitis B and D viral entry using clinically applied drugs as novel inhibitors of the bile acid transporter NTCP” (Scientific Reports, 2017)
Counter-ions that a name gives are not always drawn.

Biological target: T1, human NTCP (Homo sapiens, UniProt Q14973)
T1 sequence (Q14973 1-349): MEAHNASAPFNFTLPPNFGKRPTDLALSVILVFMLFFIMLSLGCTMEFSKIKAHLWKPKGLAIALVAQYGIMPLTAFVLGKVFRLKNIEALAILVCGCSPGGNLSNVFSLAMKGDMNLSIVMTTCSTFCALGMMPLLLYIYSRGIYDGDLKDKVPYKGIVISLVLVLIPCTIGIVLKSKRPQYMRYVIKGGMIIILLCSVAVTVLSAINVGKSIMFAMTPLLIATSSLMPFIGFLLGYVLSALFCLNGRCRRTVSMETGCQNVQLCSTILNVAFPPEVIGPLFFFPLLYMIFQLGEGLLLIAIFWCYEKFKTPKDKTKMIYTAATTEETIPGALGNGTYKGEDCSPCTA
Assay: Screening taurocholate uptake assay (96-well, [14C]taurocholate, 10 µM drug)
Details: for B-score functional assay: screening taurocholate uptake, 10 µM drug

[1] = combined ranking of functional and binding screening assays
[2] = ranking over the functional and the binding screening assay

In the case of `COc1cc([C@@H]2c3cc4c(cc3[C@H](O)[C@H]3COC(=O)[C@H]23)OCO4)cc(OC)c1OC` [Podophyllotoxin], the Ranking score [1] is reported as 1193.91 and the B-score functional assay (B-score) is reported as 1.781.
Work on `CC(=O)Nc1ccc(OCC(O)CNC(C)C)cc1` (centres unmarked) [Practolol] yielded a Ranking score [2] of 213.764 and a B-score functional assay of -2.472.
In the case of `C[n+]1ccccc1/C=N/O` [Pralidoxime chloride], the Ranking score [1] is reported as 600.675 and the B-score functional assay is reported as -0.006.
Molecule `O=C(Nc1cccc2c(=O)cc(-c3nnn[nH]3)oc12)c1ccc(OCCCCc2ccccc2)cc1` [Pranlukast] has a Ranking score [2] of 43.359 and a B-score functional assay of -8.959.
Molecule `CC[C@H](C)C(=O)O[C@H]1C[C@H](O)C=C2C=C[C@H](C)[C@H](CC[C@@H](O)C[C@@H](O)CC(=O)O)[C@H]21` [Pravastatin] has a Ranking score [2] of 245.632 and a B-score functional assay of -3.481.
In the case of `O=C(C1CCCCC1)N1CC(=O)N2CCc3ccccc3C2C1` (centres unmarked) [Praziquantel], the Ranking score [2] is reported as 262.237 and the B-score functional assay is reported as -0.749.
Molecule `CCOC(=O)O[C@]1(C(=O)COC(=O)CC)CC[C@H]2[C@@H]3CCC4=CC(=O)C=C[C@]4(C)[C@H]3[C@@H](O)C[C@@]21C` [Prednicarbate] has a Ranking score [2] of 140.036 and a B-score functional assay of -1.448.
For `C[C@]12C=CC(=O)C=C1CC[C@@H]1[C@@H]2[C@@H](O)C[C@@]2(C)[C@H]1CC[C@]2(O)C(=O)CO` [Prednisolone], the Ranking score [1] was 486.999 and the B-score functional assay was -0.52.
In the case of `CCCC(C(=O)OCCN(CC)CC)(c1ccccc1)c1ccccc1` [Proadifen hydrochloride], the Ranking score [1] is reported as 468.828 and the B-score functional assay is reported as -1.354.
Molecule `CN1CCN(CCCN2c3ccccc3Sc3ccc(Cl)cc32)CC1` [Prochlorperazine dimaleate] has a Ranking score [2] of 89.1291 and a B-score functional assay of -4.76.
`OC(CCN1CCCC1)(c1ccccc1)C1CCCCC1` (centres unmarked) [Procyclidine hydrochloride] gave a Ranking score [1] of 562.821 and a B-score functional assay of -0.705.
In the case of `CC(=O)[C@H]1CC[C@H]2[C@@H]3CCC4=CC(=O)CC[C@]4(C)[C@H]3CC[C@]12C` [Progesterone], the Ranking score [1] is reported as 609.007 and the B-score functional assay is reported as 0.628.
`CCCN(CCC)C(=O)C(CCC(=O)O)NC(=O)c1ccccc1` (centres unmarked) [Proglumide] was tested, and the Ranking score [2] was 231.221 and the B-score functional assay was 0.098.
In the case of `CC(C)[N+](C)(CCOC(=O)C1c2ccccc2Oc2ccccc21)C(C)C` [Propantheline bromide], the Ranking score [1] is reported as 472.136 and the B-score functional assay is reported as -0.131.
In the case of `CC[N+](C)(CC)CCC[n+]1c(-c2ccccc2)c2cc(N)ccc2c2ccc(N)cc21.[I-].[I-]` [Propidium iodide], the Ranking score [1] is reported as 504.845 and the B-score functional assay is reported as -1.35.
`CCCOc1cc(N)ccc1C(=O)OCCN(CC)CC` [Propoxycaine hydrochloride] showed a Ranking score [2] of 73.2735 and a B-score functional assay of -2.561.
Molecule `C[C@@H]1O[C@@H](O[C@@H]2C=C3CC[C@@H]4[C@H](CC[C@]5(C)[C@@H](c6ccc(=O)oc6)CC[C@]45O)[C@@]3(C)CC2)[C@H](O)[C@H](O)[C@H]1O` [Proscillaridin A] has a Ranking score [2] of 183.761 and a B-score functional assay of -2.06.
With `CN1CCCN=C1/C=C/c1cccs1.O=C(O)C(O)C(O)C(=O)O` [Pyrantel tartrate] the Ranking score [1] was 600.829 and the B-score functional assay was -0.111.
With `NC(=O)c1cnccn1` [Pyrazinamide] the Ranking score [2] was 244.119 and the B-score functional assay was 0.065.
In the case of `CN(C)C(=O)Oc1ccc[n+](C)c1.[I-]` [Pyridostigmine iodide], the Ranking score [1] is reported as 1177.01 and the B-score functional assay (B-score) is reported as 1.154.
Molecule `CCc1nc(N)nc(N)c1-c1ccc(Cl)cc1` [Pyrimethamine] has a Ranking score [1] of 1154.81 and a B-score functional assay (B-score) of 2.36.
In the case of `CCC1(CC)C(=O)C=CNC1=O` [Pyrithyldione], the Ranking score [1] is reported as 558.14 and the B-score functional assay is reported as 0.404.
`OCCOCCN1CCN(C2=Nc3ccccc3Sc3ccccc32)CC1` [Quetiapine hemifumarate] showed a Ranking score [1] of 473.772 and a B-score functional assay of -0.346.
`CC(=O)SCC(Cc1ccccc1)C(=O)NCC(=O)OCc1ccccc1` (centres unmarked) [Racecadotril] showed a Ranking score [2] of 264.726 and a B-score functional assay of -1.398.
With `CNCC(O)c1ccc(O)c(O)c1` (centres unmarked) [Racepinephrine HCl] the Ranking score [1] was 629.338 and the B-score functional assay was -0.581.
In the case of `COc1ccccc1OCC(O)CN1CCN(CC(=O)Nc2c(C)cccc2C)CC1` (centres unmarked) [Ranolazine], the Ranking score [1] is reported as 603.017 and the B-score functional assay is reported as 1.748.
`CCN1CCC[C@H]1CNC(=O)c1c(OC)ccc(Br)c1OC.Cl` [Remoxipride Hydrochloride] was tested, and the Ranking score [1] was 496.085 and the B-score functional assay was -0.058.
Molecule `CCOc1cc(CC(=O)N[C@@H](CC(C)C)c2ccccc2N2CCCCC2)ccc1C(=O)O` [Repaglinide] has a Ranking score [2] of 233.103 and a B-score functional assay of -2.984.
`CC1=C(/C=C/C(C)=C/C=C/C(C)=C/C(=O)O)C(C)(C)CCC1` [Retinoic acid] gave a Ranking score [2] of 197.388 and a B-score functional assay of -0.152.
For `CO[C@H]1/C=C/O[C@@]2(C)Oc3c(C)c(O)c4c(O)c(c(/C=N/N5CCN(C6CCCC6)CC5)c(O)c4c3C2=O)NC(=O)/C(C)=C\C=C\[C@H](C)[C@H](O)[C@@H](C)[C@@H](O)[C@@H](C)[C@H](OC(C)=O)[C@@H]1C` [Rifapentine], the Ranking score [2] was 220.209 and the B-score functional assay was 0.477.
`CO[C@H]1/C=C/O[C@@]2(C)Oc3c(C)c(O)c4c(O)c(c5c(nc6cc(C)ccn65)c4c3C2=O)NC(=O)/C(C)=C\C=C\[C@H](C)[C@H](O)[C@@H](C)[C@@H](O)[C@@H](C)[C@H](OC(C)=O)[C@@H]1C` [Rifaximin] gave a Ranking score [1] of 627.999 and a B-score functional assay of -0.408.
With `CCN(C)C(=O)Oc1cccc([C@H](C)N(C)C)c1` [Rivastigmine] the Ranking score [1] was 642.937 and the B-score functional assay was -0.006.
With `CS(=O)(=O)c1ccc(C2=C(c3ccccc3)C(=O)OC2)cc1` [Rofecoxib] the Ranking score [2] was 212.386 and the B-score functional assay was 1.027.
Molecule `CN(CCOc1ccc(CC2SC(=O)NC2=O)cc1)c1ccccn1.Cl` (centres unmarked) [Rosiglitazone Hydrochloride] has a Ranking score [2] of 31.1127 and a B-score functional assay of -7.292.
Work on `CC[C@H]1OC(=O)[C@H](C)[C@@H](O[C@H]2C[C@@](C)(OC)[C@@H](O)[C@H](C)O2)[C@H](C)[C@@H](O[C@@H]2O[C@H](C)C[C@H](N(C)C)[C@H]2O)[C@](C)(O)C[C@@H](C)/C(=N\OCOCCOC)[C@H](C)[C@@H](O)[C@]1(C)O` [Roxithromycin] yielded a Ranking score [2] of 275.763 and a B-score functional assay of 1.396.
`CN1CCN(c2c(F)cc3c(=O)c(C(=O)O)cn4c3c2SCC4)CC1` [Rufloxacin] was tested, and the Ranking score [1] was 471.137 and the B-score functional assay was -0.276.
Work on `CC(C)(C)NCC(O)c1ccc(O)c(CO)c1` (centres unmarked) [Salbutamol] yielded a Ranking score [2] of 275.042 and a B-score functional assay of 1.838.
In the case of `Br.C[N+]1([O-])[C@@H]2CC(OC(=O)[C@H](CO)c3ccccc3)C[C@H]1[C@@H]1O[C@@H]12` (some centres unmarked) [Scopolamin-N-oxide hydrobromide], the Ranking score [2] is reported as 208.216 and the B-score functional assay is reported as -2.352.
Molecule `CN1[C@@H]2CC(OC(=O)[C@H](CO)c3ccccc3)C[C@H]1[C@@H]1O[C@@H]12.Cl` (some centres unmarked) [Scopolamine hydrochloride] has a Ranking score [1] of 577.314 and a B-score functional assay of 0.343.
`Cc1ncc([N+](=O)[O-])n1CC(C)O` (centres unmarked) [Secnidazole] showed a Ranking score [1] of 548.521 and a B-score functional assay of -0.391.
For `C#CCN(C)[C@H](C)Cc1ccccc1` [Selegiline hydrochloride], the Ranking score [1] was 462.99 and the B-score functional assay was -1.141.
In the case of `NCCc1c[nH]c2ccc(O)cc12` [Serotonin hydrochloride], the Ranking score [2] is reported as 107.778 and the B-score functional assay is reported as 0.952.
With `CC(C)CC(N(C)C)C1(c2ccc(Cl)cc2)CCC1.Cl` (centres unmarked) [Sibutramine HCl] the Ranking score [2] was 211.232 and the B-score functional assay was -0.386.
In the case of `C[C@H](Cc1cc2c(c(C(N)=O)c1)N(CCCO)CC2)NCCOc1ccccc1OCC(F)(F)F` [Silodosin], the Ranking score [1] is reported as 510.413 and the B-score functional assay is reported as 1.072.
`C[C@@H]1CN(c2c(F)c(N)c3c(=O)c(C(=O)O)cn(C4CC4)c3c2F)C[C@H](C)N1` [Sparfloxacin] showed a Ranking score [2] of 231.849 and a B-score functional assay of -2.411.
In the case of `CN[C@@H]1[C@H](O)[C@H](NC)[C@H]2O[C@@]3(O)C(=O)C[C@@H](C)O[C@H]3O[C@@H]2[C@H]1O.Cl.Cl` [Spectinomycin dihydrochloride], the Ranking score [2] is reported as 126.98 and the B-score functional assay is reported as -0.865.
`O=C(CCCN1CCC2(CC1)C(=O)NCN2c1ccccc1)c1ccc(F)cc1` [Spiperone] gave a Ranking score [1] of 571.731 and a B-score functional assay of -0.689.
Molecule `[H]/N=C(/N)N[C@H]1[C@H](O)[C@@H](O)[C@H](O[C@@H]2O[C@@H](C)[C@](O)(C=O)[C@H]2O[C@@H]2O[C@@H](CO)[C@H](O)[C@@H](O)[C@@H]2NC)[C@@H](N/C(N)=N\[H])[C@@H]1O` [Streptomycin sulfate] has a Ranking score [2] of 115.983 and a B-score functional assay of 1.326.
Molecule `O=C(O)CCC(=O)Nc1ccc(S(=O)(=O)Nc2nccs2)cc1` [Succinylsulfathiazole] has a Ranking score [2] of 258.147 and a B-score functional assay of -0.075.
`Nc1ccc(S(=O)(=O)NC(=O)c2ccccc2)cc1` [Sulfabenzamide] was tested, and the Ranking score [1] was 563.848 and the B-score functional assay was 0.164.
`CC(=O)[N-]S(=O)(=O)c1ccc(N)cc1.O.[Na+]` [Sulfacetamide sodic hydrate] gave a Ranking score [2] of 277.153 and a B-score functional assay of -0.444.
`Nc1ccc(S(=O)(=O)Nc2ccc(Cl)nn2)cc1` [Sulfachloropyridazine] was tested, and the Ranking score [1] was 530.669 and the B-score functional assay was 0.615.
